This is an account of results in patent publication US20070123476A1, “Polyene antibiotic for controlling fungal growth in banana crops” (priority 2004, published 2007).

Structures are written as SMILES. In brackets after ≈: the same amount, converted by molar mass.

For one series, the system named is M. fijensis. The series is described as follows: Minimal inhibitory concentration on agar plates containing natamycin (agar diffusion method). It counts as cell-based, Mycosphaerella fijiensis. As to conditions: Pseudocercospora fijiensis; spores grown on agar plates with different natamycin concentrations; no visible growth. The method, then:
(§1) The minimal inhibition concentration of these moulds or the minimal effective amount of the antifungal compound was determined using the agar diffusion method, which is well known in the art. Mould spores were grown on agar plates containing different concentrations of natamycin. The concentration of natamycin on which no visible growth could be observed was considered as the minimal inhibitory concentration (MIC) for that particular mould strain.

The conditions of series [1]: cited from earlier work.
For the next series, the system named is Fusarium oxysporum f.sp. Briefly: Minimal inhibitory concentration on agar plates containing natamycin (agar diffusion method). It counts as cell-based, Fusarium oxysporum f. sp. cubense. As to conditions: spores grown on agar plates with different natamycin concentrations, no visible growth. How it is done: as §1
(In agar diffusion tests the substance spreads into inoculated agar from a disc or well.)

The test system of a further series is most fungi. As to conditions: general background statement; cited from earlier work.

On to `C[C@@H]1C/C=C/C=C/C=C/C=C/[C@H](O[C@@H]2O[C@H](C)[C@@H](O)[C@H](N)[C@@H]2O)C[C@@H]2O[C@](O)(C[C@@H](O)C[C@H]3O[C@@H]3/C=C/C(=O)O1)C[C@H](O)[C@H]2C(=O)O` [natamycin], for which the MIC in the series with M. fijensis and in the series with Fusarium oxysporum f.sp was 3 to 7 µg/mL (≈ 4.51 to 10.5 µM) each time. In addition, the solubility in water in series [1] was 30-50 ppm. Moreover, the “MIC (Minimal Inhibition Concentration) of most fungi” value with most fungi is listed as “less than 20 ppm”.
